Source: patent US7468379B2, “Inhibition of osteolytic lesions by SRC kinase inhibitors” (The Board of Regents of the University of Texas System, priority 2005, dated 2008)

How the values were obtained:
[1] = test system: Src-dependent protein tyrosine phosphorylation; test: Src-dependent protein tyrosine phosphorylation; conditions: concentrations comparable to the Src enzyme IC50
BMM cells [2] = test: Cytotoxicity assay against BMM cells (crystal violet); assay type: cell-based
Description: (§1) Primary Bone Marrow Cell Culture. Primary bone marrow cells (BMM) from the tibiae and femora were aseptically dissected from Black 6 mice (C57BU6J) 8-12 weeks of age. Bone marrow was flushed out with incomplete D-MEM and centrifuged at 1200 rpm for 3 minutes and re-suspended in 5 ml incomplete D-MEM. BMM cells were incubated in 20 ml Red Blood Cell lysis buffer (8.3 g/NH4Cl, 1 g/l sodium bicarbonate, 0.4 g/l EDTA) at room temperature for 1-2 min. 25 ml of D-MEM supplemented with 10% FBS and 100 units/ml penicillin (complete D-MEM) were added and BMM cells were centrifuged for 3 min at 1200 rpm. BMM cells were then plated at 1.5−2×10^7 cells/10 cm dish with 10 ml of complete D-MEM and cultured for 24 h. Non-adherent cells were collected and centrifuged for 5 min at 1200 rpm and plated at a concentration of 2.5×10^4 cells/well in a 96 well dish for cytotoxicity assay, 2×10^4 cells/well in 48-well plates, or 5×10^3 cells/well in 96-well plates for osteoclast differentiation assays. Cells were cultured for 3 days in the presence of 10 ng/ml M-CSF before they were washed and used for further studies. For differentiation into osteoclasts 30-100 ng/ml RANKL is added. Media was supplemented after 2 days with fresh M-CSF and RANKL.
Cytotoxicity Assay. […] Absorbance was measured at 630 nm using an EL800 universal microplate reader from Bio-Tek Instruments Inc (Winooski, Vt.).

BMM cells [3] = test: In vitro RANKL-mediated osteoclast differentiation of BMM cells (TRAP staining); assay type: cell-based, Black 6 mice (C57BL/6J); conditions: M-CSF 10 ng/ml and RANKL 100 ng/ml, TRAP staining on day five
Text: (§2) FIGS. 1A-1C. […] M-CSF was replenished on day 3. Cells were fixed and stained for TRAP on day five, using a TRAP staining kit from Sigma-Aldrich (St. Louis, Mo.). (FIG. 1C) Data shown is representative of three experiments. Shown are photographs of representative fields from the different treatments using a 10× objective lens.
(§3) Primary Bone Marrow Cell Culture. Primary bone marrow cells (BMM) from the tibiae and femora were aseptically dissected from Black 6 mice (C57BU6J) 8-12 weeks of age. Bone marrow was flushed out with incomplete D-MEM and centrifuged at 1200 rpm for 3 minutes and re-suspended in 5 ml incomplete D-MEM. BMM cells were incubated in 20 ml Red Blood Cell lysis buffer (8.3 g/NH4Cl, 1 g/l sodium bicarbonate, 0.4 g/l EDTA) at room temperature for 1-2 min. 25 ml of D-MEM supplemented with 10% FBS and 100 units/ml penicillin (complete D-MEM) were added and BMM cells were centrifuged for 3 min at 1200 rpm. BMM cells were then plated at 1.5−2×10^7 cells/10 cm dish with 10 ml of complete D-MEM and cultured for 24 h. […]
In Vitro Osteoclast Differentiation. […] At day 5, cells were fixed and assessed for osteoclast differentiation by counting the total number of TRAP-positive, multinucleated (>3 nuclei), cells per well 96 h post-treatment using Leucocyte Acid phosphatase kit from Sigma-Aldrich (St. Louis, Mo.).

BMM cells [4] = test: Time-dependency of osteoclast differentiation inhibition in BMM cells; assay type: cell-based, Black 6 mice (C57BL/6J); conditions: 300 nM SKI606 added 12, 24 or 48 hours post-RANKL stimulation, TRAP at 96 h
Text: as §2, with “2A-2B. BMM cells respond to SKI606 in a time-dependent manner.” for “1A-1C.”, “2B)” for “1C)”, “Photographs” for “Shown”, “are” for “are photographs”
as §3
Time-dependency. […] Cells were then fixed, stained for TRAP and the numbers of osteoclasts were counted in each condition as described above.

BMM cells [5] = test: Bone-resorption assay (collagen I release from OsteoAssay plates); assay type: cell-based, Black 6 mice (C57BL/6J); conditions: 300 nM SKI606 with M-CSF and RANKL, compared to M-CSF and RANKL treatment, day 5
Description: as §1, with “Cells were cultured for 3 days in the presence of 10 ng/ml M-CSF before they were washed and used for further studies. For differentiation into osteoclasts 30-100 ng/ml RANKL is added. Media was supplemented after 2 days with fresh M-CSF and RANKL.” left out
Bone-Resorption Assay. […] Bone resorption was evaluated by measuring collagen I release from the OsteoAssay plate using Cross Laps for Culture ELISA kit from Nordic Bioscience Diagnostics (Portsmouth, Va.). Absorbance was measured at 450 nm using the reading at 650 nm as reference using an EL800 universal microplate reader from Bio-Tek Instruments Inc (Winooski, Vt.).

RAW264.7 cells [6] = test: RAW264.7 co-culture with MDA-MB-435 cells, osteoclastogenesis (TRAP); assay type: cell-based, mouse; conditions: 400 nM SKI606, 5 days
Description: (§4) FIGS. 4A-4B. […] (FIG. 4B) RAW264.7 cells (750 cells/well; 8 wells per treatment) were plated in 96 well plates in 10% conditioned media from MDA-MB-435 for 5 days. The cultures were fixed and stained for TRAP on day five, using a TRAP staining kit from Sigma-Aldrich (St. Louis, Mo.). Data shown is representative of five experiments.
RAW 264.7 Co-culture with MDA MB435 cells and Conditioned Media. For co-culture assays RAW264.7 (500 cells/well) were plated in 96 well plates and allowed to adhere for 12 hours. MDA-MB-435 were then introduced into the RAW264.7 culture at increasing density and incubated for 12 hours. […] Cells were then fixed, stained for TRAP and the numbers of osteoclasts were counted in each condition as described above.

RAW264.7 cells [7] = test: RAW264.7 with conditioned media from MDA-MB-435 cells, osteoclastogenesis (TRAP); assay type: cell-based, mouse; conditions: 10% conditioned media, 5 days
Description: as §4
For conditioned media the MDA-MB-435 cells were plated in 10 cm plates (1×10^6 cells/plate) and incubated for 36 hours. Media was then removed, centrifuged for 5 minutes at 2500 rpm and supernatants were isolated and placed in 4° C. until use. RAW264.7 cells (750 cells/well) were plated in 96 well plates and allowed to adhere for 12 hours. […] Cells were then fixed, stained for TRAP and the numbers of osteoclasts were counted in each condition as described above.

MDA-MB-435 cells = test: MDA-MB-435 Bone Tumor Mouse Model (intratibial injection); assay type: in vivo, Female athymic NCr nude mice; conditions: SKI606 150 mg/kg oral gavage, 9 weeks; tumor-injected tibia sections
Description: Mice were divided into 3 treatment groups. […] (FIG. 5A) Weight of tumor was determined as follows: weight of injected leg-weight of non-injected hind leg of the same animal. (FIG. 5B) Areas of lysis were estimated from digital X-ray images; NIH Scion program was used to measure area of tibias and lytic areas, to calculate the ratio of pixels in lytic zones/pixels in tibia area. (FIG. 5C) The tumor-injected tibia was fixed and decalcified in EDTA, and sections stained for the presence of multinucleated osteoclasts (>3 nuclei) using TRAP staining kit from Sigma-Aldrich (St. Louis, Mo.).
X-ray images were taken at 35 days after injection, and also at 14-day intervals. […]
Intrabone Injections and Processing of Bone Tissue Samples. […] After 9 weeks, final X-ray images were taken, tumor weight calculated from the difference in weight of the tumor-bearing and non tumor-bearing leg of the same animal. […] Incidence of tumor in the tibia was determined by examination of histology sections. Weight of tumor was determined as follows: weight of injected leg-weight of non-injected hind leg of the same animal. […]
Mice were divided into three treatment groups and the incidence of tumor in the tibia was determined by examination of histology sections and weight of tumor.

COc1cc(Nc2c(C#N)cnc3cc(OCCCN4CCN(C)CC4)c(OC)cc23)c(Cl)cc1Cl [SKI606, 4-((2,4-Dichloro-5-methoxyphenyl)amino)-6-methoxy-7-(3-(4-methyl-1-piperazinyl)propoxy)-3-quinolinecarbonitrile]
inhibition of Src-dependent protein tyrosine phosphorylation [1]: inhibits Src-dependent protein tyrosine phosphorylation at comparable concentrations | cells died (cytotoxicity to BMM cells) (BMM cells [2]; 600 nM SKI606, 72 h): less than 10% | cytotoxicity to BMM cells (BMM cells [2]; 72 h): not cytotoxic | effect on RANKL-mediated osteoclast differentiation in BMM (BMM cells [3]): inhibitory effect on RANKL-mediated osteoclast differentiation in BMM in a dose dependent manner | sensitivity of BMM cells to compound added after initiation of osteoclastogenesis (BMM cells [4]): less sensitive | decrease in collagen I release, an indicator of bone resorption (BMM cells [5]): 3.7 fold | inhibition of MDA-MB-435-induced osteoclastogenesis in RAW264.7 cells (RAW264.7 cells [6]): significantly inhibited | inhibition of osteoclastogenesis induced by conditioned media from MDA-MB-435 cells (RAW264.7 cells [7]): able to inhibit | TRAP-positive cells counted in sections of tumors (MDA-MB-435 cells): significantly fewer
